Assay results taken from patent US6503932B2, “Fungicidal mixtures based on amide compounds” (BASF Aktiengesellschaft, priority 2000, dated 2003).

Tests used:
[1] = test system: mildew of wheat (Blumeria graminis forma specialis tritici); experiment: Activity against mildew of wheat (protective, potted wheat seedlings); assay type: in vivo; settings: wheat 'Kanzler', 7 days
Method: (§1) The active compounds, separately or together, were formulated as a 10% strength emulsion in a mixture of 70% by weight of cyclohexanone, 20% by weight of Nekanil® LN (Lutensol® AP6, wetting agent having emulsifying and dispersing action based on ethoxylated alkylphenols) and 10% by weight of Emulphor® EL (Emulan® EL, emulsifier based on ethoxylated fatty alcohols) and correspondingly diluted with water to the desired concentration.
(§2) Evaluation was carried out by determining the infected leaf areas in percent. These percentages were converted into efficacies. The efficacy (W) was calculated as follows using Abbot's formula: […]
The expected efficacies of the mixtures of the active compounds were determined using Colby's formula [R. S. Colby, Weeds 15, 20-22 (1967)] and compared with the observed efficacies. […]
Leaves of potted wheat seedlings of the culivar “Kanzler” were sprayed to run off point with an aqueous preparation of active compound which had been prepared from a stock solution made of 10% of active compound, 85% of cyclohexanone and 5% of emulsifier and, 24 hours after the spray coating had dried on, dusted with spores of mildew of wheat (Blumeria graminis forma specialis tritici). […] After 7 days, the extent of the mildew development was determined visually in % infection of the total leaf area. […]

[2] = test system: Puccinia recondita; experiment: Curative activity against Puccinia recondita on wheat (wheat leaf rust); assay type: in vivo; settings: wheat 'Kanzler', 7 days
Method: as §1, §2
α corresponds to the fungal infection of the treated plants in % and β corresponds to the fungal infection of the untreated (control) plants in % An efficacy of 0 means that the infection level of the treated plants corresponds to that of the untreated control plants; an efficacy of 100 means that the treated plants were not infected.
The expected efficacies of the mixtures of the active compounds were determined using Colby's formula [R. S. Colby, Weeds 15, 20-22 (1967)] and compared with the observed efficacies.
Colby's formula: E=x+y−x·y/100
E expected efficacy, expressed in % of the untreated control, when using the mixture of the active compounds A and B at the concentrations a and b x efficacy, expressed in % of the untreated control, when using active compound A at a concentration of a y efficacy, expressed in % of the untreated control, when using active compound B at a concentration of b.
Leaves of potted wheat seedlings of the cultivar “Kanzler” were dusted with spores of leaf rust (Puccinia recondita). Thereafter, the pots were kept for 24 hours in a chamber of high atmospheric humidity (90 to 95%) and at 20-22° C. During this time, the spores germinated and the germinal tubes penetrated into the leaf tissue. […] Thereafter, the extent of the rust fungus development on the leaves was determined. […]

Substance: spiroxamine [spiroxamine (II)]
- Efficacy in % of the untreated control ([1]; 1.5 ppm in the spray liquor): 0%
- Efficacy in % of the untreated control ([1]; 3 ppm in the spray liquor): 20%
- Efficacy in % of the untreated control ([2]; 1.5 ppm in the spray liquor): 0%
- Efficacy in % of the untreated control ([2]; 3 ppm in the spray liquor): 0%
- Efficacy in % of the untreated control ([2]; 12.5 ppm in the spray liquor): 30%
